Type in all cases: cell-based
For test [1], the system named is Kir2.1. As to the kind of experiment: Rb+ efflux of 293 cells stably expressing Kir2.1 incubated with BFA without MTSET treatment. The conditions noted are these: BFA 3 h, absence of MTSET treatment (data not shown). As for the experimental part:
(§1) Rb^+ Flux Assay and Atomic Absorption Spectrometry. All assays shown were performed at room temperature in poly(L-lysine) (0.1 mg/ml)-coated 24-well microplates. For experiments with transiently transfected cells, ˜1×10^5 cells were seeded in each well the day before transfection (0.3 μg of DNA per well). Sodium butyrate at 5 mM was added 6-8 h after transfection. The assays were performed 24 h after transfection. HEK 293 cells stably expressing either Kir2.1 or Kir2.1Y channel were seeded with a cell density of 2×10^5 cells per well. To enhance expression, 5 mM sodium butyrate was added 4-6 h after seeding. Cells then were cultured continuously for 16-20 h before experiments.
Rb^+ Efflux. […] The Rb^+ concentration in each sample was analyzed using the ICR 8000. Rb^+ efflux (%) was determined as: 100%×[Rb^+]sup/([Rb^+]sup+[Rb^+]lysate) where [Rb^+]sup represents the Rb^+ concentration in the supernatant, and [Rb^+]lysate represents the Rb^+ concentration in the cell lysate.
In the case of Kir2.1, we observed reproducible ˜30% reduction over the same period of incubation (data not shown). […] For Kir2.1Y, the combination of quantitative elimination of surface channel activity by MTSET, the >90% activity recovery, and little detectable reduction of Rb^+ efflux in the presence of BFA then would predict a 2-fold increase of protein signal on the cell surface. […]

Test [2] deals with Kir2.1Y channel. The test can be described thus: FRAC: recovery of Kir2.1Y channel activity (Rb+ efflux) after MTSET chemobleaching. An excerpt:
To assay the transit time of nacently surfaced receptor, we first modify, inhibit, or change (pulse) accessible functional molecules on the cell surface and then monitor the recovery of the original function/activity at subsequent time points (chase). One thus may determine the time required to populate the cell surface with newly inserted cell surface molecules (FIG. 1). Designing versions of this assay involves consideration of at least four factors. (i) A functional assay preferably monitors activity predominantly or only from molecules on the cell surface. […] (iii) The activity detection should be relatively short compared with the time required to repopulate the cell surface with functional molecules. (iv) The pulse should be rapid, quantitative, and optionally irreversible, thereby allowing detection of the activity contributed only by the newly arrived (or newly activated) proteins on the cell surface. These are considerations only, rather than mandatory properties. Deviation from one of these considerations may involve compensation by another. Furthermore, one of ordinary skill in the art will appreciate that treatment of cell surfaces can be restricted to a desirable area, such as the apical surface of epithelial cells. Thus, spatially restricted populations of cell surface receptors can be affected.
Rb^+ Flux Assay and Atomic Absorption Spectrometry. All assays shown were performed at room temperature in poly(L-lysine) (0.1 mg/ml)-coated 24-well microplates. For experiments with transiently transfected cells, ˜1×10^5 cells were seeded in each well the day before transfection (0.3 μg of DNA per well). Sodium butyrate at 5 mM was added 6-8 h after transfection. The assays were performed 24 h after transfection. […]
Rb^+ Efflux. […] The Rb^+ concentration in each sample was analyzed using the ICR 8000. Rb^+ efflux (%) was determined as: 100%×[Rb^+]sup/([Rb^+]sup+[Rb^+]lysate) where [Rb^+]sup represents the Rb^+ concentration in the supernatant, and [Rb^+]lysate represents the Rb^+ concentration in the cell lysate. […]

Test [3] has as its system Kir2.1Y channel. The test can be described thus: Rb+ efflux of 293 cells stably expressing Kir2.1Y incubated with BFA without MTSET treatment. Here is the method: as §1
Rb^+ Efflux. To load Rb^+ into cells, we incubated cells in 0.5 ml per well 50/50 DMEM/F12 complete growth medium containing ˜5 mM RbCl at 37° C. for 3-4 h. Cells then were washed twice quickly with 1 ml per well non-Rb^+ medium to remove residual Rb^+. […] The Rb^+ concentration in each sample was analyzed using the ICR 8000. Rb^+ efflux (%) was determined as: 100%×[Rb^+]sup/([Rb^+]sup+[Rb^+]lysate) where [Rb^+]sup represents the Rb^+ concentration in the supernatant, and [Rb^+]lysate represents the Rb^+ concentration in the cell lysate. […]

Test [4] has as its target T1, wild-type Kir2.1 (Homo sapiens, UniProt P63252).
T1 sequence (P63252 1-427): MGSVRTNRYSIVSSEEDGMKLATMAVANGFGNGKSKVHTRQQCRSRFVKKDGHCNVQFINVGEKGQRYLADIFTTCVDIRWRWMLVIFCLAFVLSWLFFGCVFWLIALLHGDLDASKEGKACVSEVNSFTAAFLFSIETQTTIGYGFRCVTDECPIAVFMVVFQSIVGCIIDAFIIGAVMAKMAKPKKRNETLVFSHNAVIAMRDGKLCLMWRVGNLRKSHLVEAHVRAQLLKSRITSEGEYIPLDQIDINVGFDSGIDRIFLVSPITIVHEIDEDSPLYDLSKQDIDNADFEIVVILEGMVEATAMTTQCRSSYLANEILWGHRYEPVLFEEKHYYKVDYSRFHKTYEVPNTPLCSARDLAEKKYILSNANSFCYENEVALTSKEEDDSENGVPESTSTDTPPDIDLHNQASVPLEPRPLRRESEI
As to the kind of experiment: Rb+ flux assay of wild-type Kir2.1 with MTSET. An excerpt: (§2) Earlier reports using electrophysiological recording have shown that membrane-nonpermeable MTS reagents such as MTSET reduce or abolish the current of Kir2.1 by covalently modifying the reduced form of cysteine residues already present in the channel protein or introduced by site-directed mutagenesis (18). It is not known whether or to what extent the modifications by MTS reagents will affect channel activity measured by a Rb^+ flux assay. We tested several cysteine positions of Kir2.1 mutants using MTSET, a positively charged cysteinyl sulfhydryl-specific reagent.

The test system of test [5] is Kir2.1Y channel. The test can be described thus: Rb+ influx assay of HEK 293 cells transiently transfected with Kir2.1Y, with MTSET treatment. The following applies: MTSET treatment before the assay (2.5 mM per FIG. 2 legend). As for the experimental part: as §1
Rb^+ Influx. To perform the assay, cells first were incubated in 50/50 DMEM/F12 complete growth medium containing 5 mM RbCl for the indicated time periods before the medium was quickly aspirated. Cells then were washed twice quickly with non-Rb^+ DMEM/F12 medium and lysed with 0.5 ml of 0.1% SDS per well. The Rb^+ concentration in cell lysates was measured by atomic absorption spectrophotometry (ICR8000, Aurora Biomed, Vancouver), according to the manufacturer's user manual.
(§3) To monitor the specificity of the Rb^+ assay and the effectiveness of Rb^+ detection by atomic absorption spectrometry (19), we measured the Rb^+ uptake signals of transiently transfected cells at different times of incubation. […]

In test [6] the test system is Kir2.1Y channel. As to the kind of experiment: Rb+ efflux assay of 293 cells stably expressing Kir2.1Y, with MTSET treatment. The following applies: stable Kir2.1Y line, FIG. 2c. Here is the method: as §1
Rb^+ Efflux. To load Rb^+ into cells, we incubated cells in 0.5 ml per well 50/50 DMEM/F12 complete growth medium containing ˜5 mM RbCl at 37° C. for 3-4 h. […] The Rb^+ concentration in each sample was analyzed using the ICR 8000. Rb^+ efflux (%) was determined as: 100%×[Rb^+]sup/([Rb^+]sup+[Rb^+]lysate) where [Rb^+]sup represents the Rb^+ concentration in the supernatant, and [Rb^+]lysate represents the Rb^+ concentration in the cell lysate.
as §3

Test [7] has as its system Kir2.1 mutation of C149. The test can be described thus: Electrophysiological recording and Rb+ assay of Kir2.1 C149 mutant with MTSET. The conditions noted are these: electrophysiological recording and Rb+ assay (data not shown).
Excerpt: as §2

Each structure is given as a SMILES string. Where “and” joins values, the source holds several entries; their conditions need not be identical. Equal values may be shown once. Entries after “also recorded” stand apart in the source; their conditions may differ.

Take `C[C@H]1CCC/C=C/[C@@H]2C[C@H](O)C[C@H]2[C@H](O)/C=C/C(=O)O1` [BFA, Brefeldin A]: the “reduction of Rb+ efflux activity” value in test [1] was roughly 30%. In test [2] (1 μM BFA at 37° C. for 3 h, added immediately after 5-min MTSET treatment (FIG. 5a)), the activity recovery was < 20% and 20%. The “BFA concentration at which the effect reaches a plateau” value in test [2] (recovery at 3 h, 37° C., FIG. 5b) is greater than 0.6 µM. Moreover, the “sensitivity of surface channel activity to BFA concentrations” value in test [3] (absence of MTSET treatment, 3-h incubation, FIG. 5b) is “no sensitivity”. Besides, in test [3] (without MTSET treatment, 3-h incubation with BFA), the “effect on activity of channels already on the cell surface (Rb+ efflux)” value was “did not affect the activity; also recorded: did not result in a detectable reduction”.

As for `C[N+](C)(C)CCSS(C)(=O)=O.[Br-]` [MTSET, [2-(trimethylammonium)ethyl]methanethiosulfonate bromide], the “effect of MTSET on channel activity” value in test [4] was “quantitatively nullified”. The “specific Rb+ uptake signal abolished” value in test [5] is given as greater than 80%. Moreover, in test [6], the “Rb+ efflux signal after MTSET treatment” value was “only background signals were observed”. Besides, in test [7], the “sensitivity to MTSET” value is listed as “loss of sensitivity”.

Take `C[C@@H]1C[C@@H]([C@H](O)CC2CC(=O)NC(=O)C2)C(=O)[C@@H](C)C1` [cycloheximide]: in test [2] (cycloheximide in FRAC experiments (data not shown)), the activity recovery was found to be 40%.

The record behind these values is patent publication US7883893B2, “Method to assay test substances” (priority 2005, dated 2011).
